Source: paper PMC6364417, “Kinase inhibitor library screening identifies synergistic drug combinations effective in sensitive and resistant melanoma cells” (Journal of Experimental & Clinical Cancer Research : CR, 2019)

Legend:
Assay in all cases: Kinase inhibitor library screening, PrestoBlue cell viability, 1 or 10 μM, 72 h
501Mel cells (parental) = conditions: 501Mel Parental, 72 h, in %
Experimental: (§1) After 72 h of treatment, cell viability was assessed using the PrestoBlue Cell Viability Reagent (ThermoFisher Scientific). Measurements were performed with the CLARIOstar Monochromator microplate reader (BMG Labtech).
(§2) Kinase inhibitor library screening. […] Each cell line was treated in its sensitive form (parental), and also as 2 resistant derivatives, which were made resistant to either Vemurafenib (XP) or Dabrafenib (GP). Drugs were added at 2 different concentrations, 1 and 10 μM, for 72 h and cell viability was assessed using the PrestoBlue Cell Viability assay. Results are depicted as % viability compared to untreated cells. Each cell line was analyzed at least in duplicate. […] (XLSX 95 kb)

[1] = system: 501Mel-GP cells (Dabrafenib-resistant); conditions: for Cell viability in kinase inhibitor library screening, 501Mel GP, 1μΜ / Cell viability in kinase inhibitor library screening, 501Mel GP, 10μΜ / cell viability (kinase inhibitor library screening): 72 h, 501Mel GP; for Cell viability in kinase inhibitor library screening, 501Mel GP, 1μΜ / Cell viability in kinase inhibitor library screening, 501Mel GP, 10μΜ: in %
Experimental: as §1, §2

[2] = system: 501Mel-XP cells (Vemurafenib-resistant); conditions: for Cell viability in kinase inhibitor library screening, 501Mel XP, 1μΜ / Cell viability in kinase inhibitor library screening, 501Mel XP, 10μΜ: in %
Experimental: as §1, §2

A375 cells (parental) = conditions: for Cell viability in kinase inhibitor library screening, A375 Parental, 10μΜ / Cell viability in kinase inhibitor library screening, A375 Parental, 1μΜ / cell viability (kinase inhibitor library screening): 72 h, A375 Parental
Experimental: as §1, §2

[3] = system: A375-GP cells (Dabrafenib-resistant); conditions: for Cell viability in kinase inhibitor library screening, A375 GP, 1μΜ / Cell viability in kinase inhibitor library screening, A375 GP, 10μΜ / cell viability (kinase inhibitor library screening): 72 h, A375 GP
Experimental: as §1, §2

[4] = system: A375-XP cells (Vemurafenib-resistant); conditions: for Cell viability in kinase inhibitor library screening, A375 XP, 1μΜ / Cell viability in kinase inhibitor library screening, A375 XP, 10μΜ / cell viability (kinase inhibitor library screening): 72 h, A375 XP
Experimental: as §1, §2

[5] = system: IGR37-GP cells (Dabrafenib-resistant)
Experimental: as §1, §2

[6] = system: IGR37-XP cells (Vemurafenib-resistant); conditions: for Cell viability in kinase inhibitor library screening, IGR37 XP, 10μΜ / Cell viability in kinase inhibitor library screening, IGR37 XP, 1μΜ / cell viability (kinase inhibitor library screening): 72 h, IGR37 XP; for Cell viability in kinase inhibitor library screening, IGR37 XP, 1μΜ: in %
Experimental: as §1, §2

IGR37 cells (parental) = conditions: for Cell viability in kinase inhibitor library screening, IGR37 Parental, 1μΜ / Cell viability in kinase inhibitor library screening, IGR37 Parental, 10μΜ: in %
Experimental: as §1, §2

SMILES	Cell viability in kinase inhibitor library screening, 501Mel Parental, 10μΜ (501Mel cells (parental))	Cell viability in kinase inhibitor library screening, 501Mel GP, 1μΜ ([1]; 1μΜ)	Cell viability in kinase inhibitor library screening, 501Mel GP, 10μΜ ([1]; 10μΜ)	Cell viability in kinase inhibitor library screening, 501Mel XP, 1μΜ ([2]; 501Mel XP, 72 h)	Cell viability in kinase inhibitor library screening, 501Mel XP, 10μΜ ([2]; 501Mel XP, 10μΜ, 72 h)	Cell viability in kinase inhibitor library screening, A375 Parental, 10μΜ (A375 cells (parental); 10μΜ)	Cell viability in kinase inhibitor library screening, A375 Parental, 1μΜ (A375 cells (parental); 1μΜ)	Cell viability in kinase inhibitor library screening, A375 GP, 1μΜ ([3]; 1μΜ)	Cell viability in kinase inhibitor library screening, A375 GP, 10μΜ ([3]; 10μΜ)	Cell viability in kinase inhibitor library screening, A375 XP, 1μΜ ([4]; 1μΜ)	Cell viability in kinase inhibitor library screening, A375 XP, 10μΜ ([4]; 10μΜ)	Cell viability in kinase inhibitor library screening, IGR37 GP, 10μΜ ([5]; IGR37 GP, 10μΜ, 72 h) [%]	Cell viability in kinase inhibitor library screening, IGR37 XP, 10μΜ ([6]; 10μΜ) [%]	Cell viability in kinase inhibitor library screening, IGR37 XP, 1μΜ ([6]; 1μΜ)	Cell viability in kinase inhibitor library screening, IGR37 Parental, 1μΜ (IGR37 cells (parental); IGR37 Parental, 1μΜ, 72 h)	Cell viability in kinase inhibitor library screening, IGR37 Parental, 10μΜ (IGR37 cells (parental); IGR37 Parental, 72 h)	other results
Cc1nc(NC(=O)N2CCC[C@H]2C(N)=O)sc1-c1csc(C(C)(C)C)n1 [A66]	85.2	92.2	75.2	102.8	65.7	72.4	98.3	93.1	64.2	92.2	75.9	75	41.5	91.5	–	–	Cell viability in kinase inhibitor library screening, 501Mel Parental, 1μΜ (501Mel cells (parental); 1μΜ): 94.4; Cell viability in kinase inhibitor library screening, IGR37 GP, 1μΜ ([5]; IGR37 GP, 1μΜ, 72 h, in %): 91.2
COc1ccc2c(Oc3ccc(NC(=O)c4c(C)n(CC(C)(C)O)n(-c5ccccc5)c4=O)nc3)ccnc2c1 [AMG458]	–	–	–	–	–	–	–	–	–	–	–	–	–	–	–	–	cell viability (kinase inhibitor library screening) ([1]; 1μΜ): 92.9%; cell viability (kinase inhibitor library screening) ([1]; 10μΜ): 70.8%; cell viability (kinase inhibitor library screening) ([2]; 501Mel XP, 10μΜ, 72 h): 51.7%; cell viability (kinase inhibitor library screening) (A375 cells (parental); 10μΜ): 96.0%; cell viability (kinase inhibitor library screening) (A375 cells (parental); 1μΜ): 106.7%; cell viability (kinase inhibitor library screening) ([3]; 1μΜ): 107.8%; cell viability (kinase inhibitor library screening) ([3]; 10μΜ): 90.9%; cell viability (kinase inhibitor library screening) ([4]; 1μΜ): 106.6%; cell viability (kinase inhibitor library screening) ([4]; 10μΜ): 96.2%; cell viability (kinase inhibitor library screening) (IGR37 cells (parental); IGR37 Parental, 1μΜ, 72 h): 107.7%; cell viability (kinase inhibitor library screening) ([5]; IGR37 GP, 1μΜ, 72 h): 97.0%; cell viability (kinase inhibitor library screening) ([5]; IGR37 GP, 10μΜ, 72 h): 88.1%; cell viability (kinase inhibitor library screening) ([6]; 1μΜ): 94.8%; cell viability (kinase inhibitor library screening) ([6]; 10μΜ): 55.7%
Cc1ccccc1-n1c(Cn2cnc3c(N)ncnc32)nc2cccc(C)c2c1=O [IC-87114]	–	100.1	87.1	98.1	83.6	90.3	98.8	93.5	88.8	103.8	102.9	91.5	77.2	93.3	97.2	99.7	–
FC(F)(F)c1ccc(/C=C/c2nc(COc3ccc(CCCCn4ccnn4)cc3)co2)cc1 [Mubritinib (TAK 165)]	–	–	–	–	–	–	–	–	–	–	–	–	–	–	–	–	cell viability, 501Mel GP, 10μΜ [1]: 95.8; cell viability, 501Mel XP, 1μΜ [2]: 92.8; cell viability, 501Mel XP, 10μΜ [2]: 81.6; cell viability, A375 Parental, 1μΜ (A375 cells (parental)): 94.8; cell viability, A375 Parental, 10μΜ (A375 cells (parental)): 91.7; cell viability, A375 GP, 1μΜ [3]: 93.7; cell viability, A375 GP, 10μΜ [3]: 94.7; cell viability, A375 XP, 1μΜ [4]: 94.9; cell viability, A375 XP, 10μΜ [4]: 98.4; cell viability, IGR37 Parental, 1μΜ (IGR37 cells (parental)): 98.7; cell viability, IGR37 Parental, 10μΜ (IGR37 cells (parental)): 100.1; cell viability, IGR37 GP, 1μΜ [5]: 99.8; cell viability, IGR37 GP, 10μΜ [5]: 95.3; cell viability, IGR37 XP, 1μΜ [6]: 98.3; cell viability, IGR37 XP, 10μΜ [6]: 81.5
Cc1ccccc1-n1c(Cn2ncc3c(N)ncnc32)nc2cccc(C)c2c1=O [PIK-293]	99.9	–	90.9	112.1	91.5	–	–	97.7	99.7	106.1	104.4	–	77.6	103.2	105.2	107.6	–
